Columns and labels:
in vitro = details: chlorocebus sabaeus, VERO-E6 cells (Vero C1008), uninfected, CC50
SARS-CoV-2 = test: microbe, parasite or virus in culture; format: functional, organism-based, Chlorocebus sabaeus, Vero C1008; details: Severe acute respiratory syndrome coronavirus 2, Vero C1008, 48 h

Compound	CC50 at 48 h (in vitro)	IC50 (SARS-CoV-2)
O=C(Nc1ccc(Cl)c(Cl)c1)Nc1ccc(Cl)c(Cl)c1	> 33 µM	
O=C(NCCN1CCC2(CC1)C(=O)NCN2c1cccc(F)c1)c1ccc2ccccc2c1	> 33 µM	
CC(C)COCC(CN(Cc1ccccc1)c1ccccc1)N1CCCC1 (stereo not given)	23.4 µM	
O=[N+]([O-])c1ccc(NN=Cc2sc(N3CCOCC3)nc2-c2ccccc2)c(S(=O)(=O)Nc2ccccc2Cl)c1	0.43 µM	
CN1CCN(CC/C=C2\c3ccccc3Sc3ccc(S(=O)(=O)N(C)C)cc32)CC1	> 33 µM	
O=C(CCCN1CCC2(CC1)C(=O)N(Cc1cccc(F)c1)CN2c1ccccc1)c1ccc(F)cc1	27.4 µM	
Nc1c(C(=O)NCc2ccco2)c2nc3ccccc3nc2n1CCN1CCCCC1	> 33 µM	31.2 µM
N=C(Nc1ccc(I)cc1)NC1C2CC3CC(C2)CC1C3 (stereo not given)	> 33 µM	
O=C(O)c1ccc(N2C(=O)/C(=C/c3ccc(-c4ccc([N+](=O)[O-])cc4)o3)C=C2c2ccccc2)cc1	12.8 µM	> 33 µM
COc1cc(/C=C2\SC(=O)NC2=O)ccc1Oc1ccc(C#N)cc1C(F)(F)F	3.33 µM	> 33 µM
CC(C)N1CCN(c2ccc(C(=O)c3c(-c4ccc(O)cc4)sc4cc(O)ccc34)cc2)CC1	> 33 µM	
CC(C)c1cnn2c(NCc3ccccc3)cc(NCCCCCCN)nc12	> 33 µM	
CC(C)c1cccc2c(-c3ccccc3)cc(-c3ccc(-c4ccc(C(=O)O)cc4)[nH]3)nc12	> 33 µM	> 33 µM
c1ccc(-c2ccc(CNc3nc(-c4ccccn4)nnc3-c3ccccc3)cc2)cc1	0.02 µM	31.9 µM
Nc1ccc(C(=O)Nc2cccc(-c3nc(N4CCOCC4)c4oc5ncccc5c4n3)c2)cn1	0.01 µM	
Cc1cc([N+](=O)[O-])ccc1NS(=O)(=O)c1cc(Cl)ccc1Cl	16.6 µM	> 33 µM
COc1cc2c(NC3CCN(C(C)C)CC3)nc(N3CCC(F)(F)CC3)nc2cc1OCCCN1CCCC1	> 33 µM	
C/C(=C\c1ccc(C(=O)O)cc1)c1ccc2c(c1)C(C)(C)CCC2(C)C	4.07 µM	> 33 µM
COc1cc2ncnc(Nc3cccc(Br)c3)c2cc1OC	13.2 µM	
Nc1ncnc2c1ncn2[C@@H]1CC[C@@H](O)[C@H]1O	15.7 µM	

Compound	CC50 at 48 h (in vitro)	IC50 (SARS-CoV-2)
Nc1cc2c3ccccc3ccc2c2ccccc12	> 33 µM	11.6 µM
Nc1c[nH]c(=O)c2cc(-c3ccccc3)sc12	> 33 µM	5.26 µM
CCN(CC)CCO[C@H]1CC[C@@]2(C)C(=CC[C@@H]3[C@@H]2CC[C@]2(C)C(=O)CC[C@@H]32)C1	3.43 µM	
Cc1c(O)cccc1C(=O)NC(CSc1ccccc1)C(O)CN1CC2CCCCC2CC1C(=O)NC(C)(C)C (stereo not given)	> 33 µM	14.3 µM
CCN(CC)c1ccc2cc(-c3nc4ccccc4[nH]3)c(=O)oc2c1	> 33 µM	0.36 µM
Cc1ccc(C(=O)Nc2cccc(C(F)(F)F)c2)cc1Nc1nc(-c2cccnc2)nc2c1cnn2C	0.07 µM	
Nc1ncc(-c2ccnc(Nc3ccncc3)n2)c(CC2CC2)n1	2.11 µM	
CC(C)(O)CNc1ncc(-c2ccnc(Nc3ccnc(Cl)c3)n2)c(CC2CC2)n1	26.8 µM	
CCCCn1c(NC(=O)c2cccs2)c(C#N)c2nc3ccccc3nc21		19.7 µM
CCc1c(-c2ccc3[nH]ncc3c2)cnc(N)c1-c1ccc(O)cc1	> 33 µM	> 33 µM
Cc1ccc(Oc2nc3cc(-c4ccc(-c5ccccc5)cc4)c(Cl)cc3[nH]2)cc1C(=O)O	0.03 µM	> 33 µM
Cc1cc(N2C[C@@H](C)N[C@@H](C)C2)ncc1-c1ccc(-c2nc3c(ccn3C)c(=O)[nH]2)cc1	7.14 µM	> 33 µM
N#Cc1cccc(C#N)c1-c1nc2c3ccc(Cl)cc3c3ccccc3c2[nH]1	> 33 µM	
O=C1C(=Cc2cccnc2)C(=O)c2ccccc21		> 33 µM
OCCNC1CCCc2c1[nH]c1ccc(-c3ccccc3)cc21 (stereo not given)	> 33 µM	
CC(C)n1cnc2c(NCCc3ccc(O)cc3)nc(-c3csc4ccccc34)nc21	12.6 µM	> 33 µM
O=S(=O)(NCC1CC1)c1ccc(Nc2nccc(N3CCCc4cc(O)ccc43)n2)cc1	0.74 µM	
CCN(CC)CCCCNc1ncc2cc(-c3c(Cl)cccc3Cl)c(NC(=O)NC(C)(C)C)nc2n1	12.7 µM	> 33 µM
CC1(N2CCC(n3c([C@@H]4CCCNC4)nc4ccccc43)CC2)CCCCCCC1	> 33 µM	
